Assay results published in PubChem BioAssay (NCI).
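Protocol summary: plate cells (96-well), add compound at 5 concentrations, incubate 48 h, interpolate endpoints linearly. GI50 is the concentration that inhibits growth by half. TGI denotes the concentration required for complete inhibition of growth.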

Key:
Test in all cases: NCI anticancer screen, dose series, 48 h
[1] = test system: HOP-62 NSCLC
[2] = test system: SW-620 colon
[3] = test system: OVCAR-8 ovarian
[4] = test system: NCI-H23 lung
[5] = test system: MOLT-4 leukemia
[6] = test system: SNB-19 CNS
[7] = test system: SK-MEL-5 melanoma
[8] = test system: NCI/ADR-RES ovarian
[9] = test system: SN12C renal
[10] = test system: NCI-H460 lung
[11] = test system: SF-268 CNS
[12] = test system: MCF7 breast
[13] = test system: UO-31 renal
[14] = test system: MDA-MB-435
[15] = test system: SK-MEL-28 melanoma
[16] = test system: SK-OV-3 ovarian
[17] = test system: NCI-H522 lung
[18] = test system: EKVX NSCLC
[19] = test system: HL-60(TB) leukemia
[20] = test system: UACC-62 melanoma
[21] = test system: OVCAR-5 ovarian
[22] = test system: BT-549 breast
[23] = test system: IGROV1 ovarian
[24] = test system: HS 578T breast
[25] = test system: LOX IMVI melanoma
[26] = test system: U251 CNS
[27] = test system: SK-MEL-2 melanoma
[28] = test system: RXF 393 renal
[29] = test system: SNB-75 CNS
[30] = test system: KM12 colon
[31] = test system: UACC-257 melanoma
[32] = test system: ACHN renal
[33] = test system: HCT-15 colon
[34] = test system: SR leukemia
[35] = test system: COLO 205 colon
[36] = test system: M14 melanoma
[37] = test system: A549 NSCLC
[38] = test system: 786-0 renal
[39] = test system: SF-295 CNS
[40] = test system: HCT-116 colon
[41] = test system: MDA-MB-231 breast
[42] = test system: OVCAR-3 ovarian
[43] = test system: TK-10 renal
[44] = test system: PC-3 prostate
[45] = test system: HOP-92 NSCLC
[46] = test system: NCI-H226 lung
[47] = test system: A498 renal
[48] = test system: DU-145 prostate
[49] = test system: SF-539 CNS
[50] = test system: RPMI-8226 leukemia
[51] = test system: K-562 leukemia
[52] = test system: HT29 colon
[53] = test system: CAKI-1 renal

Question: `Nc1ccc(-c2nc3ccccc3[nH]2)c(O)c1` was tested. Which GI50 [1] did it give?
Answer: 60.5 µM

Question: And the TGI [1]?
Answer: > 100 µM

Question: What about the GI50 [2] of the same compound?
Answer: 29.1 µM

Question: And the TGI [2]?
Answer: > 100 µM

Question: And the GI50 [3]?
Answer: 42.3 µM

Question: And the TGI [3]?
Answer: > 100 µM

Question: What about the GI50 [4] of the same compound?
Answer: 20 µM

Question: And the TGI [4]?
Answer: 66.3 µM

Question: And the GI50 [5]?
Answer: 39.7 µM

Question: And the TGI [5]?
Answer: > 100 µM

Question: What about the GI50 [6] of the same compound?
Answer: 66.8 µM

Question: And the TGI [6]?
Answer: > 100 µM

Question: And the GI50 [7]?
Answer: 21.3 µM

Question: And the TGI [7]?
Answer: 72.3 µM

Question: What about the GI50 [8] of the same compound?
Answer: 27.8 µM

Question: And the TGI [8]?
Answer: 81.1 µM

Question: What about the GI50 [9] of the same compound?
Answer: 42.4 µM

Question: What about the TGI [9] of the same compound?
Answer: > 100 µM

Question: What about the GI50 [10] of the same compound?
Answer: 30.4 µM

Question: What about the TGI [10] of the same compound?
Answer: > 100 µM

Question: And the GI50 [11]?
Answer: 27.6 µM

Question: And the TGI [11]?
Answer: > 100 µM

Question: And the GI50 [12]?
Answer: 30.3 µM

Question: And the TGI [12]?
Answer: > 100 µM

Question: And the GI50 [13]?
Answer: 43.8 µM

Question: What about the TGI [13] of the same compound?
Answer: > 100 µM

Question: What about the GI50 [14] of the same compound?
Answer: 28.2 µM

Question: What about the TGI [14] of the same compound?
Answer: 64.6 µM

Question: What about the GI50 [15] of the same compound?
Answer: 53.9 µM

Question: And the TGI [15]?
Answer: > 100 µM

Question: What about the GI50 [16] of the same compound?
Answer: > 100 µM

Question: What about the TGI [16] of the same compound?
Answer: > 100 µM

Question: And the GI50 [17]?
Answer: > 100 µM

Question: And the TGI [17]?
Answer: > 100 µM

Question: What about the GI50 [18] of the same compound?
Answer: 15.1 µM

Question: What about the TGI [18] of the same compound?
Answer: > 100 µM

Question: And the GI50 [19]?
Answer: 40.4 µM

Question: What about the TGI [19] of the same compound?
Answer: > 100 µM

Question: And the GI50 [20]?
Answer: 25.2 µM

Question: And the TGI [20]?
Answer: 95.5 µM

Question: And the GI50 [21]?
Answer: 36.4 µM

Question: And the TGI [21]?
Answer: > 100 µM

Question: What about the GI50 [22] of the same compound?
Answer: 50.9 µM

Question: What about the TGI [22] of the same compound?
Answer: > 100 µM

Question: What about the GI50 [23] of the same compound?
Answer: > 100 µM

Question: And the TGI [23]?
Answer: > 100 µM

Question: And the GI50 [24]?
Answer: 21.5 µM

Question: And the TGI [24]?
Answer: 71.7 µM

Question: What about the GI50 [25] of the same compound?
Answer: 40.8 µM

Question: What about the TGI [25] of the same compound?
Answer: > 100 µM

Question: What about the GI50 [26] of the same compound?
Answer: 60.3 µM

Question: And the TGI [26]?
Answer: > 100 µM

Question: What about the GI50 [27] of the same compound?
Answer: > 100 µM

Question: What about the TGI [27] of the same compound?
Answer: > 100 µM

Question: And the GI50 [28]?
Answer: 35.4 µM

Question: And the TGI [28]?
Answer: > 100 µM

Question: And the GI50 [29]?
Answer: 87.2 µM

Question: And the TGI [29]?
Answer: > 100 µM

Question: What about the GI50 [30] of the same compound?
Answer: 17.9 µM

Question: And the TGI [30]?
Answer: 57.4 µM

Question: And the GI50 [31]?
Answer: 18.6 µM

Question: And the TGI [31]?
Answer: 49.2 µM

Question: And the GI50 [32]?
Answer: 24.3 µM

Question: And the TGI [32]?
Answer: 82.9 µM

Question: What about the GI50 [33] of the same compound?
Answer: > 100 µM

Question: What about the TGI [33] of the same compound?
Answer: > 100 µM

Question: And the GI50 [34]?
Answer: 26.2 µM

Question: What about the TGI [34] of the same compound?
Answer: > 100 µM

Question: What about the GI50 [35] of the same compound?
Answer: 35 µM

Question: And the TGI [35]?
Answer: > 100 µM

Question: And the GI50 [36]?
Answer: 30.4 µM

Question: What about the TGI [36] of the same compound?
Answer: > 100 µM

Question: What about the GI50 [37] of the same compound?
Answer: 35.3 µM

Question: What about the TGI [37] of the same compound?
Answer: > 100 µM

Question: And the GI50 [38]?
Answer: 47.4 µM

Question: What about the TGI [38] of the same compound?
Answer: > 100 µM

Question: What about the GI50 [39] of the same compound?
Answer: 26.5 µM

Question: What about the TGI [39] of the same compound?
Answer: 63.4 µM

Question: What about the GI50 [40] of the same compound?
Answer: 16.3 µM

Question: What about the TGI [40] of the same compound?
Answer: 40.7 µM

Question: What about the GI50 [41] of the same compound?
Answer: 17 µM

Question: What about the TGI [41] of the same compound?
Answer: 47.3 µM

Question: What about the GI50 [42] of the same compound?
Answer: 40.4 µM

Question: What about the TGI [42] of the same compound?
Answer: > 100 µM

Question: What about the GI50 [43] of the same compound?
Answer: 17.8 µM

Question: What about the TGI [43] of the same compound?
Answer: 84 µM

Question: And the GI50 [44]?
Answer: 23.9 µM

Question: What about the TGI [44] of the same compound?
Answer: > 100 µM

Question: And the GI50 [45]?
Answer: 5.82 µM

Question: What about the TGI [45] of the same compound?
Answer: 45.2 µM

Question: And the GI50 [46]?
Answer: 35.5 µM

Question: What about the TGI [46] of the same compound?
Answer: > 100 µM

Question: And the GI50 [47]?
Answer: 31.9 µM

Question: What about the TGI [47] of the same compound?
Answer: 68.5 µM

Question: What about the GI50 [48] of the same compound?
Answer: 38.9 µM

Question: And the TGI [48]?
Answer: > 100 µM

Question: What about the GI50 [49] of the same compound?
Answer: 17.3 µM

Question: What about the TGI [49] of the same compound?
Answer: 53.1 µM

Question: And the GI50 [50]?
Answer: 17 µM

Question: And the TGI [50]?
Answer: 52.3 µM

Question: And the GI50 [51]?
Answer: 31.5 µM

Question: And the TGI [51]?
Answer: > 100 µM

Question: What about the GI50 [52] of the same compound?
Answer: 41 µM

Question: What about the TGI [52] of the same compound?
Answer: > 100 µM

Question: What about the GI50 [53] of the same compound?
Answer: 27.1 µM

Question: And the TGI [53]?
Answer: 58.1 µM
